Read-outs that look alike come from different tables or passages of the source.
How the values were obtained:
[1] = Plasma pharmacokinetics after oral TAK-285 (LC-MS/MS, noncompartmental); format: in vivo, human (Japanese patients); conditions: for Cmax / half-life / Tmax / AUC(0-inf) / AUC: human, plasma, oral; for Tmax: median (range); for AUC: read-out: AUC0–tau
Experimental: (§1) In the dose escalation cohort, plasma samples for PK analysis were collected at predose and up to 72 h after single dose administration and on day 21 after repeated administration of TAK-285. Urine samples were also collected up to 24-h postdose. In the repeated administration cohort, plasma samples for PK analysis were collected at predose and up to 12-h postdose on days 1 and 28. Urine samples were also collected up to 12-h postdose each day. Concentrations of TAK-285 and M-I in plasma and urine were determined using validated liquid chromatography tandem mass spectrometry (LC-MS/MS) methods. The plasma and urine samples were treated by liquid–liquid extraction and subjected to LC-MS/MS equipped with a reversed-phase column. The lower limit of quantification for both TAK-285 and M-I was 0.2 ng ml^–1 in plasma and 2 ng ml^–1 in urine when 50 μl of the plasma sample and 55 μl of the urine sample (containing 5 μl of Tween 80 solution) were analysed. Tween 80 solution was added to the urine sample to prevent the adsorption of analytes onto the sample containers. The accuracy of the plasma assay (percentage deviation from nominal) ranged from −10.8 to 11.0% for TAK-285, and from −14.0 to 13.8% for M-I. […] Pharmacokinetic parameters of TAK-285 and M-I were estimated for each patient using noncompartmental methods with Phoenix WinNonlin Version 6.1 (Pharsight, Mountain View, CA, USA).

[2] = system: solid tumours; experiment: Antitumour activity by RECIST in patients; format: in vivo, human (Japanese patients)
Experimental: The primary study endpoints were to determine the MTD as well as PK profiles of TAK-285 and its metabolite, M-I (data on file, Takeda Pharmaceutical Company Limited). The secondary endpoints were objective response rate (complete response (CR) and partial response (PR)), disease control rate (CR, PR and stable disease (SD), for at least 12 weeks), and time to tumour progression, defined as the time from the first dose of TAK-285 until disease progression or death. Tumour response was assessed every 4 weeks by RECIST version 1.0 ([Therasse et al, 2000]).

[3] = rodent and primate; non-clinical studies; cited from earlier work
[4] = Urinary excretion after oral TAK-285; format: in vivo, human (Japanese patients); conditions: up to 12- or 24-h postdose following single or multiple dosing
Experimental: as §1

[5] = 50 mg, single dosing, 50 mg b.i.d., dose escalation cohort, mean (s.d.)
[6] = 50 mg, single dosing, 50 mg q.d., dose escalation cohort, mean (s.d.)
[7] = 100 mg, single dosing, 100 mg b.i.d., dose escalation cohort, mean (s.d.)
[8] = 200 mg, single dosing, 200 mg b.i.d., dose escalation cohort, mean (s.d.)
[9] = 300 mg, single dosing, 300 mg b.i.d., repeated administration cohort, mean (s.d.)
[10] = multiple versus single dosing, across doses

SMILES: CC(C)(O)CC(=O)NCCn1ccc2ncnc(Nc3ccc(Oc4cccc(C(F)(F)F)c4)c(Cl)c3)c21 [TAK-285]
- R (Cmax), accumulation ratio multiple versus single dosing ([1]; day 21, 50 mg b.i.d., dose escalation cohort, mean (s.d.)): 1.55 (0.205)
- R (Cmax), accumulation ratio multiple versus single dosing ([1]; day 21, 50 mg q.d., dose escalation cohort, mean (s.d.)): 1.20 (0.342)
- R (Cmax), accumulation ratio multiple versus single dosing ([1]; day 21, 100 mg b.i.d., dose escalation cohort, mean (s.d.)): 2.00 (0.613)
- R (Cmax), accumulation ratio multiple versus single dosing ([1]; day 21, 200 mg b.i.d., dose escalation cohort, mean (s.d.)): 2.70 (0.829)
- R (Cmax), accumulation ratio multiple versus single dosing ([1]; day 21, 300 mg b.i.d., dose escalation cohort, mean (s.d.)): 3.12 (1.22)
- R (Cmax), accumulation ratio multiple versus single dosing ([1]; day 28, 300 mg b.i.d., repeated administration cohort, mean (s.d.)): 3.62 (2.05)
- Cmax ([1]; 50 mg b.i.d., multiple dosing day 21, 50 mg b.i.d., dose escalation cohort, mean (s.d.)): 358 ng/mL
- half-life ([1]; 50 mg b.i.d., multiple dosing day 21, 50 mg b.i.d., dose escalation cohort, mean (s.d.), read-out: t1/2 (converted)): 7.49 h
- Tmax ([1]; 50 mg b.i.d., multiple dosing day 21, 50 mg b.i.d., dose escalation cohort): 2.05 h
- Cmax ([1]; 50 mg q.d., multiple dosing day 21, 50 mg q.d., dose escalation cohort, mean (s.d.)): 260 ng/mL
- half-life ([1]; 50 mg q.d., multiple dosing day 21, 50 mg q.d., dose escalation cohort, mean (s.d.), read-out: t1/2 (converted)): 8.69 h
- Tmax ([1]; 50 mg q.d., multiple dosing day 21, 50 mg q.d., dose escalation cohort): 2 h
- AUC(0-inf) [1, 5]: 1970 ng·h/mL
- Cmax [1, 5]: 234 ng/mL
- half-life ([1]; 50 mg, single dosing, 50 mg b.i.d., dose escalation cohort, mean (s.d.), read-out: t1/2 (converted)): 6.45 h
- Tmax ([1]; 50 mg, single dosing, 50 mg b.i.d., dose escalation cohort): 1 h
- AUC(0-inf) [1, 6]: 1730 ng·h/mL
- Cmax [1, 6]: 214 ng/mL
- half-life ([1]; 50 mg, single dosing, 50 mg q.d., dose escalation cohort, mean (s.d.), read-out: t1/2 (converted)): 7.27 h
- Tmax ([1]; 50 mg, single dosing, 50 mg q.d., dose escalation cohort): 1.49 h
- Cmax ([1]; 100 mg b.i.d., multiple dosing day 21, 100 mg b.i.d., dose escalation cohort, mean (s.d.)): 774 ng/mL
- half-life ([1]; 100 mg b.i.d., multiple dosing day 21, 100 mg b.i.d., dose escalation cohort, mean (s.d.), read-out: t1/2 (converted)): 7.79 h
- Tmax ([1]; 100 mg b.i.d., multiple dosing day 21, 100 mg b.i.d., dose escalation cohort): 2 h
- AUC(0-inf) [1, 7]: 2820 ng·h/mL
- Cmax [1, 7]: 379 ng/mL
- half-life ([1]; 100 mg, single dosing, 100 mg b.i.d., dose escalation cohort, mean (s.d.), read-out: t1/2 (converted)): 9.43 h
- Tmax ([1]; 100 mg, single dosing, 100 mg b.i.d., dose escalation cohort): 2 h
- Cmax ([1]; 200 mg b.i.d., multiple dosing day 21, 200 mg b.i.d., dose escalation cohort, mean (s.d.)): 2420 ng/mL
- half-life ([1]; 200 mg b.i.d., multiple dosing day 21, 200 mg b.i.d., dose escalation cohort, mean (s.d.), read-out: t1/2 (converted)): 6.95 h
- Tmax ([1]; 200 mg b.i.d., multiple dosing day 21, 200 mg b.i.d., dose escalation cohort): 2 h
- AUC(0-inf) [1, 8]: 9530 ng·h/mL
- Cmax [1, 8]: 965 ng/mL
- half-life ([1]; 200 mg, single dosing, 200 mg b.i.d., dose escalation cohort, mean (s.d.), read-out: t1/2 (converted)): 6.57 h
- Tmax ([1]; 200 mg, single dosing, 200 mg b.i.d., dose escalation cohort): 2.48 h
- Cmax ([1]; 300 mg b.i.d., multiple dosing day 21, 300 mg b.i.d., dose escalation cohort, mean (s.d.)): 3700 ng/mL
- half-life ([1]; 300 mg b.i.d., multiple dosing day 21, 300 mg b.i.d., dose escalation cohort, mean (s.d.), read-out: t1/2 (converted)): 8.25 h
- Tmax ([1]; 300 mg b.i.d., multiple dosing day 21, 300 mg b.i.d., dose escalation cohort): 2 h
- Cmax ([1]; 300 mg, multiple dosing day 28, 300 mg b.i.d., repeated administration cohort, mean (s.d.)): 2810 ng/mL
- half-life ([1]; 300 mg, multiple dosing day 28, 300 mg b.i.d., repeated administration cohort, mean (s.d.), read-out: t1/2 (converted)): 11.1 h
- Tmax ([1]; 300 mg, multiple dosing day 28, 300 mg b.i.d., repeated administration cohort): 2.97 h
- Cmax ([1]; 300 mg, single dosing, 300 mg b.i.d., dose escalation cohort, mean (s.d.)): 1350 ng/mL
- half-life ([1]; 300 mg, single dosing, 300 mg b.i.d., dose escalation cohort, mean (s.d.), read-out: t1/2 (converted)): 7.5 h
- Tmax ([1]; 300 mg, single dosing, 300 mg b.i.d., dose escalation cohort): 2 h
- AUC(0-inf) [1, 9]: 9210 ng·h/mL
- Cmax [1, 9]: 983 ng/mL
- half-life ([1]; 300 mg, single dosing, 300 mg b.i.d., repeated administration cohort, mean (s.d.), read-out: t1/2 (converted)): 6.1 h
- Tmax ([1]; 300 mg, single dosing, 300 mg b.i.d., repeated administration cohort): 2.03 h
- half-life ([1]; at all doses, single dose, read-out: estimated terminal-phase half-life (t1/2)): 6 to 9 h
- AUC ([1]; multiple dosing day 21, 50 mg b.i.d., dose escalation cohort, mean (s.d.)): 2720 ng·h/mL
- AUC ([1]; multiple dosing day 21, 50 mg q.d., dose escalation cohort, mean (s.d.)): 2210 ng·h/mL
- AUC ([1]; multiple dosing day 21, 100 mg b.i.d., dose escalation cohort, mean (s.d.)): 6090 ng·h/mL
- accumulation ratios of AUC [1, 10]: 1.4–4.6
- accumulation ratios of Cmax [1, 10]: 1.2–3.6
- disease control rate ([2]; 1 of 26 patients): 3.8%
- objective response rate ([2]; 1 of 26 patients): 3.8%
- median time to tumour progression ([2]; 26 patients): 58 days
- patients showing reduction in tumour size ([2]; dose escalation cohort): one
- patients achieving partial response (PR), percent ([2]; of 26 patients): 3.8%
- patients achieving partial response (PR), number ([2]; parotid cancer, 300 mg b.i.d.): One
- duration of partial response ([2]; patient with parotid cancer): 56 days
- patients showing reduction in tumour size ([2]; repeated administration cohort, of six patients): three
- tolerability in toxicity models [3]: well tolerated
- mean cumulative excretion ratio in urine [4]: below 0.02 % of the dose

Source: paper PMC3322948, “Phase I first-in-human study of TAK-285, a novel investigational dual HER2/EGFR inhibitor, in cancer patients” (British Journal of Cancer, 2012)
